Experimental data reported in US11096985B2, “Antimicrobial peptides, their variants and uses” (priority 2015, dated 2021).
≈ marks a conversion by molar mass, not a printed value. Entries after “also recorded” stand apart in the source; their conditions may differ. Where a SMILES comes first, the peptide text is derived from it.

How the values were obtained:
[1] = tested on: Aspergillus flavus (DSM 1959); test: Radial diffusion assay, antifungal, A. flavus; format: cell-based; conditions: 20 μg
Protocol: (§1) The radial diffusion assay (RDA) was carried out as described by Andersen et al. (2010). Briefly, 30 ml of 1/10 Muller-Hinton broth (MHB) supplemented with 1% agarose and 5.0×10^5 CFU/ml S. aureus or E. coli or K. pneumoniae, P. aeruginosa cells was poured into a single-well omnitray (Nunc) and overlaid with a TSP 96-well plate. One hundred μg of each synthesized peptide was tested. The peptides were also tested against Fusarium oxysporum and Verticillium dahliae, for which 1/3 potato dextrose agarose was used. To test the synergistic effect of peptides, each peptide was mixed in equimolar concentrations. Mix1 (met1-12), Mix2 (met3, 4 and 5), Mix3 (met 8, 9 and 10), Mix 4 (met11, 12) and Mix5 (8, 9, 10, 11, 12) were prepared and tested against E. coli and S. aureus. Gentamicin and vancomycin were included as positive controls for bacteria and amphotericin B was used as the control for fungi.
(§2) By using rational design techniques, we have designed variants of peptides by incorporating or replacing various amino acids in the original peptides. Thus, we have designed and modified Chain 100, Chain 200 and Chain 300 with tryptophan (W), arginine (R) and lysine (K) at various positions to improve antimicrobial activity (FIGS. 4a-c and 5a-c). In some peptides we have also used other amino acids such as Leucine (L), Cysteine (C), Isoleucine (I), Phenylalanine (F) and Alanine (A). For synthesis, 32 variants and 3 original peptides were selected based on the various parameters such as positive charge, aliphatic index and instability index. Peptides variants were tested by using radial diffusion assay against Escherichia coli (ATCC 25922), Staphylococcus aureus (ATCC 25923), Klebsiella pneumoniae (ATCC 10031) and Pseudomonas aeruginosa (ATCC 27853) (FIGS. 6a-c). The zone of inhibition ranged between 10-18 mm for Escherichia coli and Staphylococcus aureus, 6-18 mm & 8-18 mm for Pseudomonas aeruginosa and Klebsiella pneumonia respectively (Table 2). For Gentamicin it was between 22-24 mm. Antifungal activity was tested for promising antibacterial peptides (Chains 104, 105, 109, 201, 204, 306, 307, 308, 310) against Aspergillus flavus (DSM 1959) and Penicillium chrysogenum (DSM 1075). All these peptides has activity at a concentration of 20 μg, Amphotericin B was used as a positive control at 20 μg (FIG. 7).

[2] = tested on: Penicillium chrysogenum (DSM 1075); test: Radial diffusion assay, antifungal, P. chrysogenum; format: cell-based; conditions: 20 μg
Protocol: as §1, §2

human erythrocytes = format: cell-based
Protocol: In hemolysis assays, the ability of peptides at 128 μg/ml concentration to lyse human erythrocytes to release hemoglobin was measured. The peptides described here preferably have low hemolytic activity (0.2 to 3.8% hemolysis) in mammal body. […] These peptides are useful as antimicrobial drugs as they show little or no side effects at concentrations needed to kill bacteria.
Minimum inhibition concentrations (MICs) were tested by microbroth dilution method and Chain 104, 105 and 109 inhibited the growth of Escherichia coli (ATCC 25922), Staphylococcus aureus (ATCC 25923), Klebsiella pneumoniae (ATCC 10031) and Pseudomonas aeruginosa (ATCC 27853) between 1-8 μg/ml respectively (Tables 3a, 3b and 3c). The membranolytic activities of the peptides were tested by measuring the release of hemoglobin from erythrocytes of fresh blood donated by voluntiers. Hemoglobin levels were determined spectrometrically by taking OD at 540 nm by following the protocol of Schmidtchen et al., 2011.

4 ATCC bacterial strains = test: Effect of NaCl on MIC; format: cell-based; conditions: 200 mM NaCl in MH medium
Protocol: (§4) Thermal stability was evaluated by diluting peptides to the concentration of 2 mg/ml in PBS buffer (pH 7.4) and incubating at different temperatures, such as +4° C., 25° C. (RT), 37° C. and 45° C., peptides stored at −20° C. were used as control. […] Peptides were also tested by diluting them at different pH values starting from pH 4 to 9. The effect of NaCl on the antimicrobial activity was tested by adding different concentrations (50, 100 and 200 mM) of NaCl to MH medium and the minimum inhibitory concentrations were tested against 4 ATCC bacterial strains.

E. coli = test: Transmission electron microscopy of treated E. coli; format: cell-based, Escherichia coli; conditions: 10 μg/ml, 37° C., 1 h
Protocol: E. coli and S. aureus were grown to mid-exponential phase and diluted in Muller Hinton broth (MHB) medium to a cell density of 0.1 by taking absorbance at 600 nm and incubated at 37° C. for 1 h with 10 μg/ml Chain peptides. After incubation, an equal volume of 2% glutaraldehyde in 0.1 M phosphate buffer was added and the cells were pelleted by centrifugation at 5000 rpm for 2 minutes, and the cell pellet was fixed with 1% glutaraldehyde in 0.1 M phosphate. Cells were post-fixed with osmium tetroxide, dehydrated using increasing concentrations of acetone or alcohol, and embedded in plastic resin (Epon). Ultrathin sections (70-80 nm) were post-stained with uranyl acetate and lead citrate before observation with TEM. Microscopy was performed with a Tecnai G2 Spirit 120 kV TEM with Veleta and Quemesa CCD cameras.

[3] = tested on: gram positive and negative bacteria; test: MIC by micro broth dilution, summary over the strains tested; format: cell-based
Protocol: (§3) Minimum inhibition concentrations (MICs) were determined against Escherichia coli (ATCC 25922), Staphylococcus aureus (ATCC 25923), Klebsiella pneumoniae (ATCC 10031) and Pseudomonas aeruginosa (ATCC 27853). Also clinical strains of E. coli, K. pneumoniae, E. cloacae, P. aeruginosa, Serratia marcescens, Proteus mirabilis, S. pneumoniae, Acinetobacter baumannii, A. johnsonii and S. aureus were used for MICs assays. Additionally, clinical strains of yeast including Candida albicans, C. glabrata, C. parapsilosis and C. quillermondiae were used. The susceptibility of these microorganisms to Chain peptides were determined using micro broth dilution assay. Colonies of the respective microorganism from Muller Hinton (MH) agar plates incubated overnight were suspended in MH broth media and final concentration of microorganism was adjusted to 5.0×10^5 cfu/ml. An aliquot of 10 μl of each Chain peptide, or gentamicin, tetracycline as reference antibiotics were added in differing concentrations along with 90 μl of bacterial suspension to 96 well polypropylene plates and incubated at 37° C. for 20 to 24 hours. Concentrations of Chain peptides and reference antibiotics ranged from 0.125 to 128 μg/ml and the MICs were recorded as the lowest concentration with no visual growth of bacteria. Similarly, antifungal MICs were tested in Potato dextrose broth.

[4] = +4, 25, 37 and 45° C., 14 days, PBS pH 7.4, RDA with 20 μg
Protocol: as §4

[5] = pH 4-9, RDA
Protocol: as §4

[6] = tested on: Escherichia coli (ATCC 25922); format: cell-based; conditions: ATCC 25922
Protocol: as §3

[7] = tested on: Klebsiella pneumoniae (ATCC 10031); format: cell-based; conditions: ATCC 10031
Protocol: as §3

[8] = tested on: Pseudomonas aeruginosa (ATCC 27853); format: cell-based; conditions: ATCC 27853
Protocol: as §3

[9] = tested on: Staphylococcus aureus (ATCC 25923); format: cell-based; conditions: ATCC 25923
Protocol: as §3

Row | Compound | antifungal activity against Aspergillus flavus [1] | antifungal activity against Penicillium chrysogenum [2] | side effects to humans as tested by hemolysis assay (human erythrocytes) | increase in MIC values with NaCl (4 ATCC bacterial strains) | TEM observation of E. coli cells (E. coli) | activity against the four ATCC strains [3] | thermostability (antibacterial activity kept after incubation) [4] | pH stability (zone of inhibition) [5] | Minimum inhibitory concentration, Escherichia coli (ATCC 25922) [6] | Minimum inhibitory concentration, Klebsiella pneumoniae (ATCC 10031) [7] | Minimum inhibitory concentration, Pseudomonas aeruginosa (ATCC 27853) [8] | Minimum inhibitory concentration, Staphylococcus aureus (ATCC 25923) [9]
1 | CC(C)C[C@H](NC(=O)[C@H](CC(C)C)NC(=O)[C@H](Cc1ccccc1)NC(=O)[C@H](Cc1c[nH]c2ccccc12)NC(=O)[C@H](CCCCN)NC(=O)[C@H](CC(C)C)NC(=O)[C@@H](N)CCCNC(=N)N)C(=O)N[C@@H](Cc1ccccc1)C(=O)N[C@@H](CCCNC(=N)N)C(=O)N[C@@H](CCCCN)C(=O)N[C@@H](CCCNC(=N)N)C(=O)O [Chain308] (H-RLKWFLLFRKR-OH; N-terminus and C-terminus assumed) | has activity; also recorded: particularly active | has activity; also recorded: particularly active | little side effects | 2 fold | almost all E. coli cells had lost their rod-shaped structural integrity | very active | not hindered by pH or temperature even upto 45 °C for over 14 days | not hindered by pH |  |  |  | 
2 | CC[C@H](C)[C@H](NC(=O)[C@H](CCCCN)NC(=O)[C@H](CCCNC(=N)N)NC(=O)[C@H](Cc1c[nH]c2ccccc12)NC(=O)[C@H](CCCNC(=N)N)NC(=O)[C@@H](NC(=O)[C@@H](NC(=O)[C@H](CCCNC(=N)N)NC(=O)[C@@H](N)Cc1c[nH]c2ccccc12)[C@@H](C)CC)C(C)C)C(=O)N[C@@H](CCCCN)C(=O)N[C@@H](CCCNC(=N)N)C(=O)O [Chain209] (H-WRIVRWRKIKR-OH; N-terminus and C-terminus assumed) |  |  |  |  |  |  |  |  | 64 µg/mL (≈ 40.1 µM) | >128 µg/mL | >128 µg/mL | >128 µg/mL
3 | CC(C)C[C@H](NC(=O)[C@H](CCCNC(=N)N)NC(=O)[C@H](Cc1c[nH]c2ccccc12)NC(=O)[C@H](CCCNC(=N)N)NC(=O)[C@H](CCCCN)NC(=O)[C@H](CC(C)C)NC(=O)[C@@H](N)CCCNC(=N)N)C(=O)N[C@@H](Cc1ccccc1)C(=O)N[C@@H](CCCNC(=N)N)C(=O)N[C@@H](CCCCN)C(=O)N[C@@H](CCCNC(=N)N)C(=O)O [Chain306] (H-RLKRWRLFRKR-OH; N-terminus and C-terminus assumed) | has activity; also recorded: particularly active | has activity; also recorded: particularly active |  | 2 fold |  | very active | not hindered by pH or temperature even upto 45 °C for over 14 days | not hindered by pH |  |  |  | 
